{
  "source": "BindingDB's records for doi:10.7270/Q2NS0S8J",
  "about": "(University of Pittsburgh, 2007)",
  "data": [
    {"biological_target": "T1, M-phase inducer phosphatase 2 (Homo sapiens, UniProt P30305)", "T1 sequence (P30305 whole entry)": "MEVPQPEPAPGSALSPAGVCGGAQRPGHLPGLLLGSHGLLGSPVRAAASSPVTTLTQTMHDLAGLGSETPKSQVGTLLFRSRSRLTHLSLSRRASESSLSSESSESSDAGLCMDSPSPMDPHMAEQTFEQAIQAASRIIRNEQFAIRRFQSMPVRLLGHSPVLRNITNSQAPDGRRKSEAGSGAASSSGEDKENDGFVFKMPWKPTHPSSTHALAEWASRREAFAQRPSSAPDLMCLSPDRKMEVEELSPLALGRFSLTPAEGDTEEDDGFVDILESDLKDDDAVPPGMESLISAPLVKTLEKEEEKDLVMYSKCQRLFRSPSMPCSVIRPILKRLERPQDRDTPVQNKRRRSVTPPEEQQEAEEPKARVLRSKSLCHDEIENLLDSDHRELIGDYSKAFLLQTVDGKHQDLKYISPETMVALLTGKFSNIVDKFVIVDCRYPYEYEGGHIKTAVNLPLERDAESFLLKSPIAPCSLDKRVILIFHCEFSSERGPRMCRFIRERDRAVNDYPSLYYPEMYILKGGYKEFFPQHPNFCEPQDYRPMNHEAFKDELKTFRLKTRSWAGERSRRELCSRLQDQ", "assay": "Cdc25B phosphatase blockers with beta-mercaptoethanol – biochemical, beta-mercaptoethanol present, catalytic domain, IC50, Cdc25B inhibitor project, late-stage follow-up (AID 670)", "units": {"IC50": "µM"}, "values": [
      {"smiles": "O=C(Nc1ccc2nc(-c3ccco3)c(-c3ccco3)nc2c1)N1CCCCCC1", "IC50": 19.2},
      {"smiles": "Cc1ccc2c(c1C)NC(C(=O)O)C1CC=CC21", "note": "(stereo not given)", "IC50": 4.2},
      {"smiles": "O=C(O)C1Nc2c(O)cccc2C2C=CCC12", "note": "(stereo not given)", "IC50": 7.42},
      {"smiles": "Cn1ncnc2c(=O)n(C)c(=O)nc1-2", "IC50": 32.4},
      {"smiles": "[O-]/[N+](=C\\c1ccncc1)c1ccccc1", "IC50": "> 50"},
      {"smiles": "COc1cccc2c(C)c(C(=O)O)[nH]c12", "IC50": 6.35},
      {"smiles": "O=C1C=Cc2ccccc2C1=O", "note": "[1,2-dihydronaphthalene-1,2-dione]", "IC50": 20.4},
      {"smiles": "CCn1nc(-c2ccccc2)nc2c(=O)n(C)c(=O)nc1-2", "note": "[1-Ethyl-6-methyl-3-phenyl-1H-pyrimido[5,4-e][1,2,4]triazine-5,7-dione]", "IC50": "> 50"},
      {"smiles": "[O-]/[N+](=C\\c1ccc(OC(F)F)cc1)c1ccccc1", "note": "[1-[4-(difluoromethoxy)phenyl]-N-phenylmethanimine oxide]", "IC50": "> 50"},
      {"smiles": "CCn1nc(-c2cccs2)nc2c(=O)n(C)c(=O)nc1-2", "note": "[1-ethyl-6-methyl-3-thiophen-2-yl-pyrimido[5,4-e][1,2,4]triazine-5,7-dione]", "IC50": 41.8},
      {"smiles": "O=C1Cc2ccccc2C(=O)N1CCc1ccccc1", "note": "[2-(2-phenylethyl)-4H-isoquinoline-1,3-dione]", "IC50": "> 50"},
      {"smiles": "N#Cc1c(N)sc(=S)c2c1CCN(Cc1ccccc1)C2", "note": "[3-Amino-7-benzyl-1-thioxo-5,6,7,8-tetrahydro-1H-thiopyrano[3,4-c]pyridine-4-carbonitrile]", "IC50": 33.1},
      {"smiles": "Cc1ccccc1Nc1cc2ccccc2c(O)n1", "note": "[3-[(2-methylphenyl)amino]-2H-isoquinolin-1-one]", "IC50": "> 50"},
      {"smiles": "COc1ccc(Br)cc1C=c1sc2nc(-c3ccco3)nn2c1=O", "note": "[5-[(5-bromanyl-2-methoxy-phenyl)methylidene]-2-(furan-2-yl)-[1,3]thiazolo[3,2-b][1,2,4]triazol-6-one]", "IC50": 1.78},
      {"smiles": "CC(=O)Nc1cc(OC(C)=O)c2nonc2c1OC(C)=O", "note": "[Acetic acid 7-acetoxy-5-acetylamino-benzo[1,2,5]oxadiazol-4-yl ester]", "IC50": "> 50"},
      {"smiles": "CCOC(=O)C(C(=O)OCC)c1cc(Br)c2noc3c2c1C(=O)c1ccccc1-3", "note": "[MLS000038842]", "IC50": "> 50"},
      {"smiles": "Oc1nc(Nc2ccccc2)cc2ccccc12", "note": "[MLS000043701]", "IC50": "> 50"},
      {"smiles": "Cc1c(N=c2c(=O)c3ccccc3c2=O)c(=O)n(-c2ccccc2)n1C", "note": "[MLS000105950]", "IC50": "> 50"},
      {"smiles": "CCOc1ccc2noc3c2c1C(=O)c1ccccc1-3", "note": "[MLS000106837]", "IC50": "> 50"},
      {"smiles": "COc1ccc2noc3c2c1C(=O)c1ccccc1-3", "note": "[MLS000106874]", "IC50": "> 50"},
      {"smiles": "c1ccc(CSc2nnc(-c3ccco3)c(-c3ccco3)n2)cc1", "note": "[MLS-0029114.0001]", "IC50": 10.3},
      {"smiles": "Cc1ccc2c(c1)C1C=CCC1C(C(=O)O)N2", "note": "(stereo not given) [MLS-0067149.0001]", "IC50": 5.2},
      {"smiles": "O=C(NC1(O)C(=O)c2ccccc2C1=O)c1ccccc1", "note": "[N-(2-hydroxy-1,3-dioxo-2-indenyl)benzamide]", "IC50": "> 50"},
      {"smiles": "N#Cc1c(N2CCCC2)nc(N)c2c(N)nc(N3CCCC3)cc12", "note": "[SMR000061605]", "IC50": "> 50"},
      {"smiles": "Nc1cccc2cnccc12", "note": "[isoquinolin-5-amine]", "IC50": "> 50"}
    ]}
  ]
}
